Measured values as given in patent US5891869A, “Basic oxazoline-amide derivatives of GE2270 and GE2270-like antibiotics” (Biosearch Italia, S.p.A., priority 1995, dated 1999).

Key:
Strept. pneumoniae L44 = experiment: MIC by microbroth dilution; assay type: cell-based, Streptococcus pneumoniae; settings: 0,01% BSA, 10^4 CFU/ml, 18-24 h, Todd Hewitt broth
Method: (§1) The minimal inhibitory concentration (MIC) has been determined by microbroth dilution methodology, in the presence of 0,01% (w/v) of bovine serum albumin (BSA). BSA is added to the diluent to avoid possible adherence of the compounds of the invention to the plastic surface of the microtiter wells, as disclosed also by B. Goldstein et al., Antimicrobial Agents and Chemotherapy, 37 (1993), 741-745.
(§2) Inocula were 10^4 CFU/ml, except for Propionibacterium acnes and Bacteroides fragilis (10^5 CFU/ml) MICs were read after 18-24 h, except for Haemophilus influenzae, P. acnes, B. fragilis (48 h).
(§3) All microorganisms were incubated at 37° C.; H. influenzae in a 5% CO2 atmosphere, anaerobes in a N2 --CO2 --H2 (80:10:10) mixture; other organisms in air.
(§4) The growth media are: Oxoid Iso-Sensitest broth for staphylococci and Enterococcus faecalis); Difco Todd Hewitt broth for streptococci; Difco brain heart infusion broth+1% Difco Supplement C. for H. influenzae; Difco Wilkins-Chalgren broth for anaerobes.

[1] = tested on: Staphylococcus aureus L165; experiment: MIC by microbroth dilution; assay type: cell-based; settings: 0,01% BSA, inoculum 10^4 CFU/ml, read after 18-24 h, Iso-Sensitest broth
Method: as §1, §2, §3, §4

[2] = tested on: Streptococcus pyogenes L49; experiment: MIC by microbroth dilution; assay type: cell-based; settings: 0,01% BSA, 10^4 CFU/ml, 18-24 h, Todd Hewitt broth
Method: as §1, §2, §3, §4

[3] = tested on: Bacteroides fragilis ATCC 25285 L1011; experiment: MIC by microbroth dilution; assay type: cell-based; settings: 0,01% BSA, 10^5 CFU/ml, 48 h, anaerobic, Wilkins-Chalgren broth
Method: as §1, §2, §3, §4

Strept. sanguis L1721 = experiment: MIC by microbroth dilution; assay type: cell-based, Streptococcus sanguis; settings: 0,01% BSA, 10^4 CFU/ml, 18-24 h, Todd Hewitt broth
Method: as §1, §2, §3, §4

Strept. agalactiae L310 = experiment: MIC by microbroth dilution; assay type: cell-based, Streptococcus agalactiae; settings: 0,01% BSA, 10^4 CFU/ml, 18-24 h, Todd Hewitt broth
Method: as §1, §2, §3, §4

[4] = tested on: Propionibact. acnes ATCC 6919 L1014; experiment: MIC by microbroth dilution; assay type: cell-based, Propionibacterium acnes; settings: 0,01% BSA, 10^5 CFU/ml, 48 h, anaerobic, Wilkins-Chalgren broth
Method: as §1, §2, §3, §4

Staph. haemolyticus L602 = experiment: MIC by microbroth dilution; assay type: cell-based, Staphylococcus haemolyticus; settings: 0,01% BSA, 10^4 CFU/ml, 18-24 h, Iso-Sensitest broth
Method: as §1, §2, §3, §4

[5] = tested on: Haemoph. influenzae ATCC 19418 L970; experiment: MIC by microbroth dilution; assay type: cell-based, Haemophilus influenzae; settings: 0,01% BSA, 10^4 CFU/ml, 48 h, 5% CO2, brain heart infusion broth+1% Supplement C
Method: as §1, §2, §3, §4

[6] = tested on: Staph. epidermidis ATCC 12228 L147; experiment: MIC by microbroth dilution; assay type: cell-based, Staphylococcus epidermidis; settings: 0,01% BSA, 10^4 CFU/ml, 18-24 h, Iso-Sensitest broth
Method: as §1, §2, §3, §4

[7] = tested on: Enterococcus faecalis ATCC 7080 L149; experiment: MIC by microbroth dilution; assay type: cell-based; settings: Enterococc. faecalis ATCC 7080 L149; 0,01% BSA; 10^4 CFU/ml; 18-24 h; Iso-Sensitest broth
Method: as §1, §2, §3, §4

gram positive bacteria = settings: from K. Shimanaka et al.; cited from earlier work

Row | SMILES | MIC of the compounds (Strept. pneumoniae L44) [µg/mL] | MIC of the compounds [1] [µg/mL] | MIC of the compounds [2] [µg/mL] | MIC of the compounds [3] [µg/mL] | MIC of the compounds (Strept. sanguis L1721) [µg/mL] | MIC of the compounds (Strept. agalactiae L310) [µg/mL] | MIC of the compounds [4] [µg/mL] | MIC of the compounds (Staph. haemolyticus L602) [µg/mL] | MIC of the compounds [5] [µg/mL] | MIC of the compounds [6] [µg/mL] | MIC of the compounds [7] [µg/mL] | antimicrobial activity (gram positive bacteria)
1 | CNC(=O)CC1NC(=O)c2csc(n2)-c2ccc(-c3nc(C4=NC(C(=O)N(C)CCN(C)C)CO4)cs3)nc2-c2csc(n2)-c2csc(n2)C(C(O)c2ccccc2)NC(=O)CNC(=O)c2nc(sc2COC)C(C(C)C)NC(=O)c2nc1sc2C (mixture of isomers) [Compound 4] | 0.13 | 0.06 | 0.5 | 8 | 0.13 | 0.5 | 0.016 | 0.06 | 4 | 0.06 |  | 
2 | CNC(=O)CC1NC(=O)c2csc(n2)-c2ccc(-c3nc(C4=NC(C(=O)N5CCN(C)CC5)CO4)cs3)nc2-c2csc(n2)-c2csc(n2)C(C(O)c2ccccc2)NC(=O)CNC(=O)c2nc(sc2COC)C(C(C)C)NC(=O)c2nc1sc2C (mixture of isomers) [Compound 6] | 0.25 | 0.06 | 4 | 128 | 0.25 | 4 |  |  |  |  |  | 
3 | CNC(=O)CC1NC(=O)c2csc(n2)-c2ccc(-c3nc(C4=NC(C(=O)NC5CNC(C(N)=O)C5)CO4)cs3)nc2-c2csc(n2)-c2csc(n2)C(C(O)c2ccccc2)NC(=O)CNC(=O)c2nc(sc2COC)C(C(C)C)NC(=O)c2nc1sc2C.O=C(O)C(F)(F)F (mixture of isomers) [Compound 13] | 0.5 | 0.13 | 4 | > 128 |  |  | 0.13 | 0.5 | 128 | 0.5 | 0.06 | 
4 | CNC(=O)CC1NC(=O)c2csc(n2)-c2ccc(-c3nc(C4=NC(C(=O)N(C)CCN5CCN(CCO)CC5)CO4)cs3)nc2-c2csc(n2)-c2csc(n2)C(C(O)c2ccccc2)NC(=O)CNC(=O)c2nc(sc2COC)C(C(C)C)NC(=O)c2nc1sc2C (mixture of isomers) [Compound 19] | 0.13 | 0.06 | 1 | 4 | 0.13 | 2 | 0.016 | 0.13 | 16 | 0.13 | 0.016 | 
5 | CNC(=O)CC1NC(=O)c2csc(n2)-c2ccc(-c3nc(C4=NC(C(=O)N(C)CCN(C)C)CO4)cs3)nc2-c2csc(n2)-c2csc(n2)C(C(O)c2ccccc2)NC(=O)CNC(=O)c2nc(sc2COC)C(C(C)C)NC(=O)c2nc1sc2C (centres unmarked) [Compound 4s] | 0.25 | 0.06 | 1 | 8 | 0.13 | 0.5 | 0.03 | 0.06 | 64 | 0.06 | 0.016 | 
6 | CNC(=O)CC1NC(=O)c2csc(n2)-c2ccc(-c3nc(C4=NC(C(=O)N5CCC(N(C)C)CC5)CO4)cs3)nc2-c2csc(n2)-c2csc(n2)C(C(O)c2ccccc2)NC(=O)CNC(=O)c2nc(sc2COC)C(C(C)C)NC(=O)c2nc1sc2C (centres unmarked) [Compound 10s] | 0.5 | 0.03 | 1 | 8 | 0.5 | 2 | 0.016 | 0.13 | 8 | 0.06 | 0.03 | 
7 | CNC(=O)CC1NC(=O)c2csc(n2)-c2ccc(-c3nc(C4=NC(C(=O)N(C)CCN5CCN(CCO)CC5)CO4)cs3)nc2-c2csc(n2)-c2csc(n2)C(C(O)c2ccccc2)NC(=O)CNC(=O)c2nc(sc2COC)C(C(C)C)NC(=O)c2nc1sc2C (centres unmarked) [Compound 19s] | 0.13 | 0.06 | 1 | 8 |  |  | 0.016 | 0.13 | 8 | 0.06 | 0.016 | 
8 | CNC(=O)CC1NC(=O)c2csc(n2)-c2ccc(-c3nc(C4=NC(C(=O)N5CCCC5C(N)=O)CO4)cs3)nc2-c2csc(n2)-c2csc(n2)C(C(C)C)NC(=O)CNC(=O)c2csc(n2)C(C(C)C)NC(=O)c2nc1sc2C (centres unmarked) [amythiamicin factor A] |  |  |  |  |  |  |  |  |  |  |  | shows antimicrobial activity against gram positive bacteria
